Source: ChEMBL document CHEMBL1201862, “PubChem BioAssay data set” (2004)
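48-hour exposure; five concentrations; linearly interpolated endpoints. The concentration for 50% growth inhibition is given as GI50.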 Calls of active or inactive are those of the source. Rule as the data show it: active = GI50 up to about 1.1 µM and inactive = higher.

Tests used:
Test in all cases: growth of human tumour cells (NCI), 48 h
[1] = system: A549
[2] = system: CCRF-CEM
[3] = system: EKVX
[4] = system: HCT-15
[5] = system: MOLT-4
[6] = system: Malme-3M
[7] = system: NCI-H226
[8] = system: NCI-H522
[9] = system: OVCAR-5
[10] = system: OVCAR-8
[11] = system: SF-268
[12] = system: SF-539
[13] = system: SK-MEL-28
[14] = system: SK-OV-3
[15] = system: SNB-19
[16] = system: U-251
[17] = system: T47D
[18] = system: HL-60
[19] = system: NCI/ADR-RES

SMILES | GI50 [1] | GI50 [2] | GI50 [3] | GI50 [4] [µM] | GI50 [5] | GI50 [6] | GI50 [7] | GI50 [8] | GI50 [9] | GI50 [10] | GI50 [11] | GI50 [12] | GI50 [13] | GI50 [14] | GI50 [15] | GI50 [16] | GI50 [17] | GI50 [18] | GI50 [19]
CCOC(=O)C(=O)Nc1nc2ccc(C)cc2s1 | 32.4 µM (inactive) | > 100 µM (inactive) | > 100 µM (inactive) | > 100 | > 100 µM (inactive) | > 100 µM (inactive) | > 100 µM (inactive) | > 100 µM (inactive) | > 100 µM (inactive) | > 100 µM (inactive) | > 100 µM (inactive) | 0.995 µM (active) | > 100 µM (inactive) | > 100 µM (inactive) | > 100 µM (inactive) | > 100 µM (inactive) | – | – | –
CCCCCCOc1ccc(NC2=C(Cl)C(=O)c3ncccc3C2=O)cc1 | 2.49 µM (inactive) | 1.21 µM (inactive) | > 10 µM (inactive) | 2.02 | 2.24 µM (inactive) | 1.91 µM (inactive) | 5.61 µM (inactive) | – | 7.35 µM (inactive) | 3.43 µM (inactive) | 1.97 µM (inactive) | 1.72 µM (inactive) | 1.64 µM (inactive) | > 10 µM (inactive) | 1.97 µM (inactive) | 1.61 µM (inactive) | 1.68 µM (inactive) | – | –
Cc1ncc([N+](=O)[O-])n1CCNC(=O)CCCn1ccnc1[N+](=O)[O-] | > 100 µM (inactive) | > 100 µM (inactive) | > 100 µM (inactive) | > 100 | > 100 µM (inactive) | > 100 µM (inactive) | > 100 µM (inactive) | – | > 100 µM (inactive) | > 100 µM (inactive) | > 100 µM (inactive) | > 100 µM (inactive) | > 100 µM (inactive) | – | > 100 µM (inactive) | > 100 µM (inactive) | > 100 µM (inactive) | > 100 µM (inactive) | –
CCCNC(=S)N/C=C1/C(=O)Oc2ccccc2C1=O | > 100 µM (inactive) | > 100 µM (inactive) | > 100 µM (inactive) | > 100 | > 100 µM (inactive) | 63.7 µM (inactive) | > 100 µM (inactive) | > 100 µM (inactive) | > 100 µM (inactive) | > 100 µM (inactive) | > 100 µM (inactive) | > 100 µM (inactive) | > 100 µM (inactive) | 42.2 µM (inactive) | > 100 µM (inactive) | > 100 µM (inactive) | – | 13.6 µM (inactive) | > 100 µM (inactive)
O=C(NCCN1CCCCC1)c1cccc(I)c1 | > 100 µM (inactive) | > 100 µM (inactive) | > 100 µM (inactive) | > 100 | > 100 µM (inactive) | – | > 100 µM (inactive) | – | > 100 µM (inactive) | > 100 µM (inactive) | > 100 µM (inactive) | > 100 µM (inactive) | > 100 µM (inactive) | > 100 µM (inactive) | > 100 µM (inactive) | > 100 µM (inactive) | – | > 100 µM (inactive) | > 100 µM (inactive)
COc1ccc(S(=O)(=O)N/N=C/CN2C(=O)c3ccccc3C2=O)cc1 | > 100 µM (inactive) | > 100 µM (inactive) | > 100 µM (inactive) | > 100 | > 100 µM (inactive) | > 100 µM (inactive) | 47 µM (inactive) | > 100 µM (inactive) | – | > 100 µM (inactive) | – | > 100 µM (inactive) | – | – | > 100 µM (inactive) | > 100 µM (inactive) | – | > 100 µM (inactive) | –
Cn1c(=O)sc2cc(C(=S)N3CCCCC3)ccc21 | – | 16.5 µM (inactive) | 16.1 µM (inactive) | 93.8 | 27.6 µM (inactive) | 0.865 µM (active) | 18.6 µM (inactive) | – | > 100 µM (inactive) | 25.4 µM (inactive) | 25.6 µM (inactive) | 54.5 µM (inactive) | 56.4 µM (inactive) | > 100 µM (inactive) | > 100 µM (inactive) | 41.8 µM (inactive) | – | 17.7 µM (inactive) | 29.6 µM (inactive)
